In patent publication US20200061047A1, “NEW USE OF RIFAMYCIN-QUINOLIZIDONE DUAL-ACTION MOLECULE” (TenNor Therapeutics Limited, priority 2017, published 2020) one finds MIC data, which are given here for two compounds.

≈ marks a conversion by molar mass, not a printed value. Like-named read-outs stand apart in the source and are kept apart here.

What all share (type): cell-based
The test system of test [1] is Bifidobacterium infantis subsp. Infantis ATCC 15702. Briefly: MIC, agar dilution drug sensitivity test. The settings on record: ATCC15702, Table 1. In general terms: In agar dilution the substance is mixed into plates at graded concentrations.
Test [2] has as its system Peptostreptococcus prevotii ATCC 9321. As to the kind of experiment: MIC, agar dilution drug sensitivity test. The settings on record: Anaerococcus prevotii, ATCC9321, Table 1.
The test system of test [3] is Salmonella spp ATCC 35987. As to the kind of experiment: MIC, agar dilution drug sensitivity test. The settings on record: ATCC35987, Table 1. The protocol: In this embodiment, compound I-rifamycin-quinolizidone dual-action molecule is used in a drug sensitivity test on pathogenic bacteria associated with hepatic encephalopathy, the pathogenic bacteria including the above ammonia-producing bacteria. Except that Haemophilus is tested using the microscale broth dilution method, all the other bacteria are tested using the agar dilution method consistent with that in the Guideline of the Clinical and Laboratory Standards Institute (CLSI; 1-3). All the other drug susceptibility tests are performed under anaerobic conditions except that some selective isolates are tested under both aerobic and anaerobic conditions. Control compounds include metronidazole, rifampicin, clindamycin (under anaerobic conditions) and ciprofloxacin (under aerobic and anaerobic conditions).
The tested clinical isolates may be reference strains obtained from American Type Culture Collection, ATCC, Manassas, Va. After being received, the strains are respectively inoculated on appropriate agar plates and placed under optimized conditions for growth. The growing strains are cloned in the broth containing cryoprotectant to prepare bacterial suspensions, and the bacterial suspensions are subpackaged and then stored in freezing at −80° C. Before test, the frozen bacteria are inoculated into appropriate agar dishes and cultured for growth. Anaerobic bacteria grow for 48 hours at 35° C. in a Bactron II oxygen-free cabinet (Shel Lab, Cornelius, Oreg.) before test. […]
The Minimum Inhibitory Concentration (MIC) is determined using the agar dilution method.
The MIC values of all microorganisms except Haemophilus are determined using the agar dilution method in the CLSI (1-2). […] After culturing, the MIC is determined in accordance with the CLSI guideline (1-2).

Test [4] relates to Serratia marcescens ATCC 43862. As to the kind of experiment: MIC, agar dilution drug sensitivity test. As to conditions: Serratia marcescens, ATCC43862, Serratia marcescens ATCC 43862, read-out: MIC.
In test [5] the test system is Enterobacter aerogenes ATCC 13048. Briefly: MIC, agar dilution drug sensitivity test. The settings on record: Klebsiella aerogenes, ATCC13048, Enterobacter aerogenes ATCC 13048, read-out: MIC.
Test [6] concerns Helicobacter pylori ATCC 700824. Briefly: MIC, agar dilution drug sensitivity test. As to conditions: ATCC700824, Table 1.
Test [7] relates to Haemophilus influenzae ATCC 49247. Briefly: MIC, microscale broth dilution drug sensitivity test. The procedure: (§1) In this embodiment, compound I-rifamycin-quinolizidone dual-action molecule is used in a drug sensitivity test on pathogenic bacteria associated with hepatic encephalopathy, the pathogenic bacteria including the above ammonia-producing bacteria. Except that Haemophilus is tested using the microscale broth dilution method, all the other bacteria are tested using the agar dilution method consistent with that in the Guideline of the Clinical and Laboratory Standards Institute (CLSI; 1-3). All the other drug susceptibility tests are performed under anaerobic conditions except that some selective isolates are tested under both aerobic and anaerobic conditions. Control compounds include metronidazole, rifampicin, clindamycin (under anaerobic conditions) and ciprofloxacin (under aerobic and anaerobic conditions). The tested clinical isolates may be reference strains obtained from American Type Culture Collection, ATCC, Manassas, Va. After being received, the strains are respectively inoculated on appropriate agar plates and placed under optimized conditions for growth. The growing strains are cloned in the broth containing cryoprotectant to prepare bacterial suspensions, and the bacterial suspensions are subpackaged and then stored in freezing at −80° C. Before test, the frozen bacteria are inoculated into appropriate agar dishes and cultured for growth. Anaerobic bacteria grow for 48 hours at 35° C. in a Bactron II oxygen-free cabinet (Shel Lab, Cornelius, Oreg.) before test. Haemophilus Test Medium (HTM, Teknova, Hollister, Calif.; Art. No.: 895120) is used to perform drug sensitivity test on Hemophilus using the microscale broth dilution method under aerobic and anaerobic conditions. Preparation and storage of all the above broths are performed in accordance with CLSI (1-3).
On the technique in general: Dilution methods test growth across graded concentrations, often in twofold steps.

The test system of test [8] is Haemophilus parainfluenzae ATCC 49247. The test is described as above. As to conditions: ATCC49247; Haemophilus parainfluenzae ATCC 49247; Aerobic; read-out: MIC. The procedure: as §1
The test system of test [9] is Lactobacillus salivarius JMI 941623. As to the kind of experiment: MIC, agar dilution drug sensitivity test. The settings on record: Ligilactobacillus salivarius, JMI941623, Table 1.
Test [10] relates to Streptococcus parasanguinis MMX 5671. Briefly: MIC, agar dilution drug sensitivity test. The settings on record: Streptococcus parasanguinis, MMX5671, Streptococcus parasanguinis MMX 5671, read-out: MIC.
Test [11] relates to Bordetella avium ATCC 6945. Briefly: MIC, agar dilution drug sensitivity test. As to conditions: Bordetella avium, ATCC6945, Bordetella avium ATCC 6945, read-out: MIC.
Test [12] relates to Corynebacterium urealyticum JMI 2015_30. As to the kind of experiment: MIC, agar dilution drug sensitivity test. As to conditions: Aerobic.
Test [13] relates to Escherichia coli ATCC 25922. As to the kind of experiment: MIC, agar dilution drug sensitivity test. The settings on record: ATCC25922, Table 1.
The test system of test [14] is Bacteroides bifidum ATCC 1569. Briefly: MIC, agar dilution drug sensitivity test. The settings on record: ATCC1569, Table 1.
Setting [15] is: ATCC49247, Haemophilus influenzae ATCC 49247, Aerobic.
The mark [16] stands for this setting: ATCC49247, Haemophilus influenzae ATCC 49247, Anaerobic.

For the compound `O=C(O)c1cn(C2CC2)c2cc(N3CCNCC3)c(F)cc2c1=O` [Ciprofloxacin, ciprofloxacin], the MIC in [1] was found to be 2 µg/mL (≈ 6.04 µM); in [2] it was 1 µg/mL (≈ 3.02 µM); in test [3], 0.015 µg/mL (≈ 0.0453 µM); in test [4] (Aerobic), 0.12 µg/mL (≈ 0.362 µM); in test [4] (Anaerobic), 0.25 µg/mL (≈ 0.754 µM); in [5] (Aerobic) it was 0.03 µg/mL (≈ 0.0905 µM). The MIC in test [5] (Anaerobic) was 2 µg/mL (≈ 6.04 µM); in test [6], 0.12 µg/mL (≈ 0.362 µM); in test [7] (setting [15]), no more than 0.12 µg/mL; in [7] (setting [16]), no more than 0.12 µg/mL; in [8], no more than 0.12 µg/mL; in test [9], 1 µg/mL (≈ 3.02 µM). Moreover, the MIC in [10] (Aerobic) was 1 µg/mL (≈ 3.02 µM); in test [10] (Anaerobic), 1 µg/mL (≈ 3.02 µM); in test [11] (Aerobic), 1 µg/mL (≈ 3.02 µM); in test [11] (Anaerobic) it was 2 µg/mL (≈ 6.04 µM); in test [12], greater than 16 µg/mL; in [13], 0.008 µg/mL (≈ 0.0241 µM). This compound came in with an MIC in test [14] of 2 µg/mL (≈ 6.04 µM).
On to `CO[C@H]1/C=C/O[C@@]2(C)Oc3c(C)c(O)c4c(O)c(c(/C=N/N5CCC(N(C)C6([C@@H]7CCN(c8c(F)cn9c(=O)c(C(=O)O)cc(C%10CC%10)c9c8C)C7)CC6)CC5)c(O)c4c3C2=O)NC(=O)/C(C)=C\C=C\[C@H](C)[C@H](O)[C@@H](C)[C@@H](O)[C@@H](C)[C@H](OC(C)=O)[C@@H]1C` [Compound I, (R)-3-[(4-{1-[1-(3-carboxy-1-cyclopropyl-7-fluoro-9-methyl-4-oxo-4H-quinolizine-8-yl)-pyrrolidin-3-yl-cyclopropyl]-methylamino}-piperidin-1-ylimino)-methylene]-rifamycin SV], for which the MIC was 2 µg/mL (≈ 1.66 µM) in test [1]; 0.03 µg/mL (≈ 0.0249 µM) in test [2]; 0.06 µg/mL (≈ 0.0498 µM) in [3]; 4 µg/mL (≈ 3.32 µM) in test [4] (Aerobic); greater than 64 µg/mL in test [4] (Anaerobic); 1 µg/mL (≈ 0.83 µM) in test [5] (Aerobic). Also, the MIC is greater than 64 µg/mL in test [5] (Anaerobic); 0.12 µg/mL (≈ 0.0996 µM) in test [6]; 0.12 µg/mL (≈ 0.0996 µM) in [7] (setting [15]); 0.12 µg/mL (≈ 0.0996 µM) in test [7] (setting [16]); 0.25 µg/mL (≈ 0.207 µM) in test [8]; 0.5 µg/mL (≈ 0.415 µM) in [9]. The MIC was 0.25 µg/mL (≈ 0.207 µM) in [10] (Aerobic); 8 µg/mL (≈ 6.64 µM) in test [10] (Anaerobic); 4 µg/mL (≈ 3.32 µM) in [11] (Aerobic); greater than 64 µg/mL in test [11] (Anaerobic); 0.03 µg/mL (≈ 0.0249 µM) in [12]; 0.12 µg/mL (≈ 0.0996 µM) in test [13]. The compound also returned an MIC in test [14] of 16 µg/mL (≈ 13.3 µM).
